Entries after “also recorded” stand apart in the source; their conditions may differ.
Tested on: radial artery
Assay: Radial artery diameter measured with ultrasound after topical application to the wrist
Assay type: in vivo, human
Details: for effect on the vasodilatory action of nitroglycerin: adjacent skin sites
Protocol: A dose escalation study of topical nitroglycerin was performed. Twenty healthy volunteers were selected based on the following inclusion criteria: willing and able to give written informed consent and comply with study requirements; and able to speak English. In addition, the subjects were selected based on the following exclusion criteria: presence or history of liver, cardiovascular, rheumatologic, cancer or renal disease; current treatment with any vasodilator therapy; systolic blood pressure of less than 90 mmHg; history of radial artery catheterization within the previous year; absence of radial artery blood flow in one or both arms; pregnancy; and active infection.
Each of the twenty selected subjects received either 15 mg or 30 mg of nitroglycerin (Nitro-Bid 2% ointment, 1 or 2 inches, E Fougera & Co, NY) applied to one wrist and a placebo (sorbolene cream) applied to the other wrist. Applications were performed as single-blind (subject) experiments. Radial artery diameter was measured with ultrasound before application of the topical compositions and at time intervals after application of the topical compositions. The subjects were tested again at a later date, where they received the alternate dose of nitroglycerin on one wrist and the placebo on the other wrist.
The same subjects received topical applications of nitroglycerin (30 mg) with either 20 mg or 40 mg of lidocaine topical cream (LMX 4%, Ferndale, Mich.). The nitroglycerin and lidocaine were applied at adjacent skin sites on the wrist.

Compound	effect on the vasodilatory action of nitroglycerin (20 mg lidocaine topical cream with 30 mg nitroglycerin, FIG. 2)	effect on the vasodilatory action of nitroglycerin (40 mg lidocaine topical cream with 30 mg nitroglycerin, FIG. 3)	effect on arterial diameter (lidocaine alone, topical, FIG. 3)	increase in radial artery diameter compared to the placebo (15 mg nitroglycerin topical on one wrist, healthy volunteers, FIG. 1)	increase in radial artery diameter (30 mg nitroglycerin topical on one wrist, healthy volunteers, FIG. 1)	duration of the increase in radial artery diameter (30 mg nitroglycerin topical, 2-hour application)	vasodilation (radial artery diameter versus time) (30 mg nitroglycerin topical, FIG. 1)	diameter of the radial artery in the contralateral wrist (topical nitroglycerin on the other wrist)
CCN(CC)CC(=O)Nc1c(C)cccc1C [lidocaine]	no detectable effect	did not prevent the vasodilation; also recorded: no detectable effect	no appreciable effect					
O=[N+]([O-])OCC(CO[N+](=O)[O-])O[N+](=O)[O-] [nitroglycerin]				did not significantly increase	approximately 25%	maintained during the 2-hour application	significant vasodilation	did not affect

From US9302085B2, “Methods and compositions for facilitating arterial access” (The Regents of the University of California, priority 2009, dated 2016)
